# Experiments:
# barnyardgrass [1] = experiment: Test A preemergence; assay type: in vivo, Echinochloa crus-galli; conditions: for Plant response rating, Barnyardgrass: 125 g ai/ha; for Barnyardgrass plant response rating: 500 g ai/ha
# How it was run: (§1)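 Greenhouse pot test, loam/sand soil. Formulation: non-phytotoxic solvent mix plus surfactant. Pre: directed spray onto soil after sowing. Post: plants at 1–2 leaf, 2–10 cm. Rated visually vs untreated controls at ~10 d, 0 (no effect) to 100 (complete control).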
# galium = experiment: Test C postemergence; assay type: in vivo, Galium aparine; conditions: for Galium plant response rating / Plant response rating, Galium: scale 0 to 100 (0 no effect, 100 complete control)
# From the text: (§2) Seeds of plant species selected from blackgrass (Alopecurus myosuroides), Italian ryegrass (Lolium multiflorum), wheat, winter (winter wheat, Triticum aestivum), galium (catchweed bedstraw, Galium aparine), corn (Zea mays), large (Lg) crabgrass (Digitaria sanguinalis), giant foxtail (Setaria faberii), johnsongrass (Sorghum halepense), lambsquarters (Chenopodium album), morningglory (Ipomoea coccinea), yellow nutsedge (Cyperus esculentus), pigweed (Amaranthus retroflexus), ragweed (common ragweed, Ambrosia elatior), soybean (Glycine max), barnyardgrass (Echinochloa crus-galli), oilseed rape (Brassica napus), waterhemp (common waterhemp, Amaranthus rudis), kochia (Kochia scoparia), wild oat (Avena fatua), surinam grass (Brachiaria decumbens), foxtail, green (green foxtail, Setaria viridis), goosegrass (Eleusine indica), bromegrass, downy (downy bromegrass, Bromus tectorum), nightshade (eastern black nightshade, Solanum ptycanthum), cocklebur (common cocklebur, Xanthium strumarium), cupgrass, woolly (woolly cupgrass, Eriochloa villosa), bermudagrass (Cynodon dactylon), sunflower, (common oilseed sunflower, Helianthus annuus), Russian thistle (Salsola kali), and velvetleaf (Abutilon theophrasti) were planted into a blend of loam soil and sand and treated preemergence with test chemicals formulated in a non-phytotoxic solvent mixture which included a surfactant.
# (§3) At the same time, plants selected from these crop and weed species and also barley, winter (winter barley, Hordeum vulgare), windgrass (Apera spica-venti), chickweed (common chickweed, Stellaria media), deadnettle (henbit deadnettle, Lamium amplexicaule), and canarygrass (littleseed canarygrass, Phalaris minor) were planted in pots containing Redi-Earth® planting medium (Scotts Company, 14111 Scottslawn Road, Marysville, Ohio 43041) comprising spaghnum peat moss, vermiculite, wetting agent and starter nutrients and treated with postemergence applications of test chemicals formulated in the same manner. Plants ranged in height from 2 to 18 cm (1- to 4-leaf stage) for postemergence treatments. Treated plants and controls were maintained in a greenhouse for 13 to 15 days, after which time all species were compared to controls and visually evaluated. Plant response ratings, summarized in Table C, are based on a scale of 0 to 100 where 0 is no effect and 100 is complete control. A dash (-) response means no test result.
# velvetleaf = experiment: Test C postemergence; assay type: in vivo, Abutilon theophrasti; conditions: for Plant response rating, Velvetleaf: Postemergence, scale 0 to 100 (0 no effect, 100 complete control)
# From the text: as §2, §3
# rice = experiment: Test B flooded paddy test; assay type: in vivo, Oryza sativa; conditions: Flood, 250 g ai/ha; 0 to 100 scale where 0 is no effect and 100 is complete control
# How it was run: (§4)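 Post-emergence paddy-water application at the 2-leaf stage, with 3 cm flood kept for the whole test. Response was judged visually relative to controls after 13 to 15 greenhouse days, 0 indicating no effect and 100 complete control.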
# barnyardgrass [2] = experiment: Test C postemergence; assay type: in vivo, Echinochloa crus-galli; conditions: for Barnyardgrass plant response rating / Plant response rating, Barnyardgrass: scale 0 to 100 (0 no effect, 100 complete control)
# From the text: as §2, §3
# Heteranthera limosa = experiment: Test B flooded paddy test; assay type: in vivo; conditions: Flood, 250 g ai/ha; 0 to 100 scale where 0 is no effect and 100 is complete control
# How it was run: as §4
# corn [3] = experiment: Test A postemergence; assay type: in vivo, Zea mays
# How it was run: as §1
# sedge, umbrella = experiment: Test B flooded paddy test; assay type: in vivo, Cyperus difformis; conditions: Flood, 250 g ai/ha; 0 to 100 scale where 0 is no effect and 100 is complete control
# How it was run: as §4
# wheat [4] = experiment: Test A postemergence; assay type: in vivo, Triticum aestivum; conditions: 0 to 100 scale where 0 is no effect and 100 is complete control
# How it was run: as §1
# pigweed [5] = experiment: Test A preemergence; assay type: in vivo, Amaranthus retroflexus; conditions: for Pigweed plant response rating: 500 g ai/ha
# How it was run: as §1
# pigweed [6] = experiment: Test C postemergence; assay type: in vivo, Amaranthus retroflexus
# From the text: as §2, §3
# kochia = experiment: Test C postemergence; assay type: in vivo, Kochia scoparia; conditions: for Kochia plant response rating / Plant response rating, Kochia: scale 0 to 100 (0 no effect, 100 complete control)
# From the text: as §2, §3
# pigweed [7] = experiment: Test A postemergence; assay type: in vivo, Amaranthus retroflexus; conditions: 0 to 100 scale where 0 is no effect and 100 is complete control
# How it was run: as §1
# barnyardgrass [8] = experiment: Test A postemergence; assay type: in vivo, Echinochloa crus-galli
# How it was run: as §1
# giant foxtail = experiment: Test A postemergence; assay type: in vivo, Setaria faberii; conditions: 0 to 100 scale where 0 is no effect and 100 is complete control
# How it was run: as §1
# wheat [9] = experiment: Test A preemergence; assay type: in vivo, Triticum aestivum
# How it was run: as §1
# corn [10] = experiment: Test A preemergence; assay type: in vivo, Zea mays; conditions: 0 to 100 scale where 0 is no effect and 100 is complete control
# How it was run: as §1
# [11] = 0 to 100 scale where 0 is no effect and 100 is complete control
# [12] = 0 to 100 scale, 0 no effect, 100 complete control, approx. 10 days
# [13] = 16 g ai/ha, postemergence, visual rating, 13 to 15 days
# [14] = Postemergence, 31 g ai/ha, 13 to 15 days
# [15] = 125 g ai/ha, 0 to 100 scale where 0 is no effect and 100 is complete control
# [16] = 500 g ai/ha, 0 to 100 scale, 0 no effect, 100 complete control
# [17] = Postemergence, 62 g ai/ha, scale 0 to 100 (0 no effect, 100 complete control)
# [18] = 16 g ai/ha, postemergence, 0 is no effect, 100 is complete control
# [19] = 31 g ai/ha, postemergence, visual rating, 13 to 15 days
# [20] = 125 g ai/ha, postemergence, visual rating
# [21] = 500 g ai/ha, 0 to 100 scale where 0 is no effect and 100 is complete control
compound,measurement,setting,value
CC(C)c1cnn(-c2c(C#N)cccc2Oc2ncc(Cl)cn2)c1 [Compound 85],"Plant response rating, Barnyardgrass",barnyardgrass [1]; [11],20
same,Barnyardgrass plant response rating,barnyardgrass [1]; [12],100
same,Galium plant response rating,galium; [13],40
same,"Plant response rating (0 to 100), Galium","galium; 125 g ai/ha, postemergence",75
same,"Plant response rating, Galium",galium; [14],50
same,"Plant response rating, Galium","galium; Postemergence, 62 g ai/ha",50
same,"Plant response rating (0 to 100), Velvetleaf","velvetleaf; 125 g ai/ha, postemergence",55
same,"Plant response rating, Velvetleaf","velvetleaf; 31 g ai/ha, 13 to 15 days",45
same,"Plant response rating, Velvetleaf",velvetleaf; 62 g ai/ha,45
same,"Plant response rating, Rice",rice,10
same,Barnyardgrass plant response rating,barnyardgrass [2]; [13],10
same,"Plant response rating (0 to 100), Barnyardgrass","barnyardgrass [2]; 125 g ai/ha, postemergence",5
same,"Plant response rating, Barnyardgrass",barnyardgrass [2]; [14],5
same,"Plant response rating, Barnyardgrass","barnyardgrass [2]; Postemergence, 62 g ai/ha",5
same,"Plant response rating, Ducksalad",Heteranthera limosa,30
same,"Plant response rating, Corn",corn [3]; [15],30
same,"Plant response rating, Corn",corn [3]; [16],70
same,"Plant response rating, Sedge, Umbrella","sedge, umbrella",30
same,"Plant response rating, Wheat",wheat [4]; 125 g ai/ha,0
same,"Plant response rating, Wheat",wheat [4]; 500 g ai/ha,70
same,"Plant response rating, Pigweed",pigweed [5]; [15],100
same,Pigweed plant response rating,pigweed [5]; [12],100
same,"Plant response rating (0 to 100), Pigweed","pigweed [6]; 125 g ai/ha, postemergence",70
same,"Plant response rating, Pigweed","pigweed [6]; Postemergence, 31 g ai/ha, scale 0 to 100 (0 no effect, 100 complete control), 13 to 15 days",55
same,"Plant response rating, Pigweed",pigweed [6]; [17],70
same,Kochia plant response rating,kochia; [13],50
same,"Plant response rating (0 to 100), Kochia","kochia; 125 g ai/ha, postemergence",90
same,"Plant response rating, Kochia",kochia; [14],50
same,"Plant response rating, Kochia","kochia; Postemergence, 62 g ai/ha",80
same,"Plant response rating, Pigweed",pigweed [7]; 125 g ai/ha,80
same,"Plant response rating, Pigweed",pigweed [7]; 500 g ai/ha,100
same,"Plant response rating, Barnyardgrass",barnyardgrass [8]; [15],90
same,"Plant response rating, Barnyardgrass",barnyardgrass [8]; [16],90
same,"Plant response rating, Foxtail, Giant",giant foxtail; 125 g ai/ha,70
same,"Plant response rating, Foxtail, Giant",giant foxtail; 500 g ai/ha,90
FC(F)c1cccc(Oc2ncc(Br)cn2)c1-n1cc(C(F)(F)F)cn1 [Compound 163],"Plant response rating, Barnyardgrass",barnyardgrass [1]; [11],50
same,Barnyardgrass plant response rating,barnyardgrass [1]; [11],100
same,"Plant response rating (0 to 100), Galium",galium; [18],70
same,Galium plant response rating,galium; [19],50
same,"Plant response rating, Galium",galium; [20],95
same,"Plant response rating, Galium","galium; Postemergence, 62 g ai/ha",85
same,"Plant response rating, Rice",rice,25
same,"Plant response rating (0 to 100), Barnyardgrass",barnyardgrass [2]; [18],5
same,Barnyardgrass plant response rating,barnyardgrass [2]; [19],5
same,"Plant response rating, Barnyardgrass",barnyardgrass [2]; [20],5
same,"Plant response rating, Barnyardgrass","barnyardgrass [2]; Postemergence, 62 g ai/ha",5
same,Wheat plant response rating (0 to 100 scale),wheat [9]; 125 g ai/ha,0
same,Wheat plant response rating,wheat [9]; [21],10
same,"Plant response rating, Ducksalad",Heteranthera limosa,90
same,"Plant response rating, Corn",corn [10]; 125 g ai/ha,0
same,Corn plant response rating,corn [10]; 500 g ai/ha,10
same,Corn plant response rating,corn [3]; [15],30
same,"Plant response rating, Corn",corn [3]; [21],50
same,"Plant response rating, Sedge, Umbrella","sedge, umbrella",90
same,Wheat plant response rating,wheat [4]; 125 g ai/ha,10
same,"Plant response rating, Wheat",wheat [4]; 500 g ai/ha,60
same,Pigweed plant response rating (0 to 100 scale),pigweed [5]; 125 g ai/ha,100
same,Pigweed plant response rating,pigweed [5]; [11],100
same,"Plant response rating (0 to 100), Pigweed",pigweed [6]; [18],80
same,Pigweed plant response rating,"pigweed [6]; 31 g ai/ha, postemergence, visual rating, scale 0 to 100 (0 no effect, 100 complete control), 13 to 15 days",85
same,"Plant response rating, Pigweed","pigweed [6]; 125 g ai/ha, postemergence, visual rating, scale 0 to 100 (0 no effect, 100 complete control)",90
same,"Plant response rating, Pigweed",pigweed [6]; [17],90
same,"Plant response rating (0 to 100), Kochia",kochia; [18],90
same,Kochia plant response rating,kochia; [19],90
same,"Plant response rating, Kochia",kochia; [20],100
same,"Plant response rating, Kochia","kochia; Postemergence, 62 g ai/ha",100
same,Pigweed plant response rating,pigweed [7]; 125 g ai/ha,100
same,"Plant response rating, Pigweed",pigweed [7]; 500 g ai/ha,100
same,Barnyardgrass plant response rating,barnyardgrass [8]; [15],30
same,"Plant response rating, Barnyardgrass",barnyardgrass [8]; [21],100
same,"Foxtail, Giant plant response rating",giant foxtail; 125 g ai/ha,50
same,"Plant response rating, Foxtail, Giant",giant foxtail; 500 g ai/ha,90

# Source: patent publication US9695155B2, “Herbicidal substituted pyrimidinyloxy benzene compounds” (E. I. DU PONT DE NEMOURS AND COMPANY, priority 2013, dated 2017)
